Data on eleven compounds can be found in PubChem BioAssay (NCI).

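Dose response: 5 concentrations. Exposure: 48 h. Format: 96-well plates. Endpoint: linear interpolation; highest concentration if not reached. Abbreviation: GI50, concentration required for 50% inhibition of growth. TGI: concentration producing complete growth inhibition.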 Some results are limits rather than exact numbers.

What all share (experiment): NCI-60 cell line screen, 48 h
Assay [1] relates to SN12C renal.
Assay [2] has as its system HT29 colon.
For assay [3], the system named is SF-295 CNS.
For assay [4], the system named is PC-3 prostate.
Assay [5] deals with UO-31 renal.
Assay [6] deals with MCF7 breast.
Assay [7] concerns SNB-75 CNS.
Assay [8] concerns NCI/ADR-RES ovarian.
Assay [9] deals with EKVX NSCLC.
Assay [10] concerns SK-MEL-28 melanoma.
Assay [11] deals with HCC-2998 colon.
Assay [12] has as its system CAKI-1 renal.

Consider `CCC(C)C(C(=O)N/N=C1/SCC(=O)N1C)C(=O)N/N=C1/SCC(=O)N1C` (stereo not drawn), for which the TGI in assay [1], in assay [2], in assay [3], in [4], in [5] and in assay [6] was more than 100 µM in each case. The TGI in assay [7], in [8], in [9], in assay [10], in assay [11] and in assay [12] was more than 100 µM throughout.
Regarding `N#Cc1nc(C2CC2)oc1N`, the TGI in assay [1], in assay [2], in assay [3], in [4], in assay [6] and in [7] was more than 100 µM in each case. Besides, the TGI in assay [8], in assay [9], in assay [10], in assay [11] and in assay [12] was more than 100 µM throughout.
With `CO[C@H]1O[C@@H]2CO[C@@H](c3ccccc3)O[C@H]2[C@@H]2CC=CCC[C@]12O`, the TGI in [1], in assay [2], in assay [3], in assay [4], in assay [5] and in [6] was more than 100 µM in each case. For the same compound, the TGI in assay [7] was more than 100 µM; in assay [8], more than 100 µM; in assay [9], more than 100 µM; in assay [10] it was more than 100 µM; in assay [11] it was 51.7 µM; in [12] it was more than 100 µM.
With `COC(=O)CCC1(C)C2CCC1(C)/C(=N/O)C2` (stereo not drawn), the TGI in [1], in [2], in assay [3], in assay [4], in assay [5] and in assay [6] was more than 100 µM in each case. The TGI in assay [7], in assay [8], in [9], in assay [10], in assay [11] and in [12] was more than 100 µM throughout.
Consider `O=C1CSC(/C=C/c2ccccc2)N1c1ccc(-c2ccc(-n3c(-c4ccccc4)nc4ccccc4c3=O)cc2)cc1` (stereo not drawn), for which the TGI in assay [1] is more than 100 µM; in [2] it was 34 µM; in assay [3] it was 55.7 µM; in assay [4], 65.3 µM; in assay [5] it was 50.6 µM; in [6], 95.9 µM. The TGI in assay [7] is 8.52 µM; in [8] it was more than 100 µM; in [9], 73.1 µM; in assay [10], 53.3 µM; in assay [11] it was more than 100 µM; in [12] it was 88.7 µM.
Consider `CN(C)/C(N)=N/C(N)=Nc1cccc(Cl)c1`, for which the TGI in assay [1], in assay [2], in assay [3], in [4], in assay [5] and in assay [6] was more than 100 µM each time. Also, the TGI in assay [7], in [8], in assay [9], in assay [10], in assay [11] and in [12] was more than 100 µM in each case.
As for `CC1CC(C)[C@H](O)C([C@H](O)CC2CC(=O)N(C)C(=O)C2)C1` (stereo partly drawn), the TGI in [1], in [2], in [3], in assay [4], in [5] and in [6] was more than 100 µM each time. In addition, the TGI in assay [7], in assay [8], in [9], in assay [10], in assay [11] and in assay [12] was more than 100 µM each time.
As to `FC(F)(F)c1nc2ccc(SSc3ccc4nc(C(F)(F)F)[nH]c4c3)cc2[nH]1`, the TGI in assay [1], in assay [2], in assay [3], in assay [4], in [5] and in assay [6] was more than 100 µM in each case. Besides, the TGI in [7], in assay [8], in assay [9], in [10], in assay [11] and in assay [12] was more than 100 µM throughout. In addition, the GI50 in assay [2], in assay [7], in assay [8], in assay [9], in [10] and in [12] was more than 100 µM in each case.
Regarding `CC1=C(C(=O)N[C@@H](Cc2ccccc2)C(=O)O)N2C(=O)[C@@H](NC(=O)[C@@H](N)CC(C)C)[C@H]2SC1`, the TGI in assay [1], in assay [3], in assay [4], in [6], in assay [7] and in assay [8] was more than 100 µM in each case. Besides, the TGI in [9], in assay [10], in [11] and in [12] was more than 100 µM each time.
Regarding `O=C(O)CN=C(C(=NCC(=O)O)c1ccccc1)c1ccccc1`, the TGI in assay [1], in assay [3], in [4], in assay [5], in assay [6] and in assay [7] was more than 100 µM throughout. Also, the TGI in assay [8], in [9], in [10], in assay [11] and in assay [12] was more than 100 µM throughout.
As for `CCC[C@H](O)[C@@H](CNc1cc(NC(C)=O)nc(NC(C)=O)n1)N(Cc1ccccc1)Cc1ccccc1`, the TGI in assay [1] is more than 100 µM; in assay [3] it was 25.5 µM; in assay [4] it was 33.5 µM; in [5], 48.6 µM; in assay [6] it was 25.8 µM; in assay [7], 34.8 µM. In addition, the TGI in assay [8] was 73.3 µM; in [9], 45.3 µM; in assay [10], more than 100 µM; in assay [11] it was more than 100 µM; in assay [12], 38.5 µM.
